Laboratory results: PubChem BioAssay AID1963981 (Molecular Pharmacology Branch, DTP, NCI, 2024)

System: 354836-022-R-J1-PDC multicell spheroid viability
Assay: Anticancer human tumor 354836-022-R-J1-PDC patient-derived head and neck squamous cell carcinoma cell line growth inhibition [PI3K]
Settings: for viability, T/C: stronger effect = lower value; active means viability on the fitted dose curve at most 10% of control; inactive means the rest
Outline: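 Spheroid viability read-out. Co-cultures contained the tumor line plus HUVEC and human MSCs. Each agent was paired with a PI3K inhibitor (inavolisib, alpelisib, duvelisib, copanlisib) across half-log dilutions starting at clinical Cmax, or at 10 microM when Cmax was unknown.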

[1] = curve of first compound, second compound 0.00316 µM
[2] = curve of first compound, second compound 0.01 µM
[3] = curve of first compound, second compound 0.0316 µM
[4] = curve of first compound, second compound 0.1 µM
[5] = curve of first compound, second compound 0.316 µM
[6] = curve of first compound, second compound 1 µM
[7] = second compound 0.00316 µM, first compound 0.0316 µM
[8] = second compound 0.00316 µM, first compound 0.1 µM
[9] = second compound 0.00316 µM, first compound 0.316 µM
[10] = second compound 0.00316 µM, first compound 1 µM
[11] = second compound 0.00316 µM, first compound 3.16 µM
[12] = second compound 0.00316 µM, first compound 10 µM
[13] = second compound 0.01 µM, first compound 0.0316 µM
[14] = second compound 0.01 µM, first compound 0.1 µM
[15] = second compound 0.01 µM, first compound 0.316 µM
[16] = second compound 0.01 µM, first compound 1 µM
[17] = second compound 0.01 µM, first compound 3.16 µM
[18] = second compound 0.01 µM, first compound 10 µM
[19] = second compound 0.0316 µM, first compound 0.0316 µM
[20] = second compound 0.0316 µM, first compound 0.1 µM
[21] = second compound 0.0316 µM, first compound 0.316 µM
[22] = second compound 0.0316 µM, first compound 1 µM
[23] = second compound 0.0316 µM, first compound 3.16 µM
[24] = second compound 0.0316 µM, first compound 10 µM
[25] = second compound 0.1 µM, first compound 0.0316 µM
[26] = second compound 0.1 µM, first compound 0.1 µM
[27] = second compound 0.1 µM, first compound 0.316 µM
[28] = second compound 0.1 µM, first compound 1 µM
[29] = second compound 0.1 µM, first compound 3.16 µM
[30] = second compound 0.1 µM, first compound 10 µM
[31] = second compound 0.316 µM, first compound 0.0316 µM
[32] = second compound 0.316 µM, first compound 0.1 µM
[33] = second compound 0.316 µM, first compound 0.316 µM
[34] = second compound 0.316 µM, first compound 1 µM
[35] = second compound 0.316 µM, first compound 3.16 µM
[36] = second compound 0.316 µM, first compound 10 µM
[37] = second compound 1 µM, first compound 0.0316 µM
[38] = second compound 1 µM, first compound 0.1 µM
[39] = second compound 1 µM, first compound 0.316 µM
[40] = second compound 1 µM, first compound 1 µM
[41] = second compound 1 µM, first compound 3.16 µM
[42] = second compound 1 µM, first compound 10 µM
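Further: spheroids exposed to agents for seven days before the viability read.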

C#Cc1c(F)ccc2cc(O)cc(-c3ncc4c(N5CC6CCC(C5)N6)nc(OCC56CCCN5CC(F)C6)nc4c3F)c12 (stereo not given) + COc1c(OCCCN2CCOCC2)ccc2c3n(c(=NC(=O)c4cnc(N)nc4)nc12)CCN3
< 0.0316 µM: IC50 [5] | IC50 [6]
inactive: viability, T/C [7] 113% | viability, T/C [8] 102% | viability, T/C [9] 107% | viability, T/C [10] 108% | viability, T/C [11] 111% | viability, T/C [12] 92.8% | viability, T/C [13] 98% | viability, T/C [14] 99% | viability, T/C [15] 96.3% | viability, T/C [16] 116% | viability, T/C [17] 92% | viability, T/C [18] 101% | viability, T/C [19] 79.4% | viability, T/C [20] 84.2% | viability, T/C [21] 96.4% | viability, T/C [22] 89.7% | viability, T/C [23] 74.1% | viability, T/C [24] 77.1% | viability, T/C [25] 56.1% | viability, T/C [26] 67.8% | viability, T/C [27] 52.9% | viability, T/C [28] 47.1% | viability, T/C [29] 45.6% | viability, T/C [30] 45.4% | viability, T/C [31] 14.6% | viability, T/C [32] 14% | viability, T/C [33] 12.9% | viability, T/C [34] 14.6%
active: viability, T/C [35] 11.4% | viability, T/C [36] 3.3% | viability, T/C [37] 2.48% | viability, T/C [38] 2.22% | viability, T/C [39] 1.66% | viability, T/C [40] 1.78% | viability, T/C [41] 1.73% | viability, T/C [42] 0.66%
> 10 µM: IC50 [1] | IC50 [2] | IC50 [3]
0.516 µM: IC50 [4]

C#Cc1c(F)ccc2cc(O)cc(-c3ncc4c(N5CC6CCC(C5)N6)nc(OCC56CCCN5CC(F)C6)nc4c3F)c12 (stereo not given) + Cc1nc(NC(=O)N2CCCC2C(N)=O)sc1-c1ccnc(C(C)(C)C(F)(F)F)c1
< 0.0316 µM: IC50 (curve of first compound, second compound 10 µM)
inactive: viability, T/C [19] 95% | viability, T/C [20] 99.3% | viability, T/C [21] 103% | viability, T/C [22] 95.4% | viability, T/C [23] 106% | viability, T/C [24] 93.9% | viability, T/C [25] 98.5% | viability, T/C [26] 101% | viability, T/C [27] 98.4% | viability, T/C [28] 87.2% | viability, T/C [29] 96% | viability, T/C [30] 93.6% | viability, T/C [31] 76% | viability, T/C [32] 83.9% | viability, T/C [33] 91.3% | viability, T/C [34] 94.1% | viability, T/C [35] 83.8% | viability, T/C [36] 85.3% | viability, T/C [37] 75.9% | viability, T/C [38] 90.5% | viability, T/C [39] 77.8% | viability, T/C [40] 76.2% | viability, T/C [41] 92.7% | viability, T/C [42] 62.2% | viability, T/C (second compound 3.16 µM, first compound 0.0316 µM) 55.6% | viability, T/C (second compound 3.16 µM, first compound 0.1 µM) 60.7% | viability, T/C (second compound 3.16 µM, first compound 0.316 µM) 57.3% | viability, T/C (second compound 3.16 µM, first compound 1 µM) 63.4% | viability, T/C (second compound 3.16 µM, first compound 3.16 µM) 52.6% | viability, T/C (second compound 3.16 µM, first compound 10 µM) 55.7% | viability, T/C (second compound 10 µM, first compound 0.0316 µM) 34.2% | viability, T/C (second compound 10 µM, first compound 0.1 µM) 32.7% | viability, T/C (second compound 10 µM, first compound 0.316 µM) 35.6% | viability, T/C (second compound 10 µM, first compound 1 µM) 36.3% | viability, T/C (second compound 10 µM, first compound 3.16 µM) 36.6% | viability, T/C (second compound 10 µM, first compound 10 µM) 26%
> 10 µM: IC50 [3] | IC50 [4] | IC50 [5] | IC50 [6] | IC50 (curve of first compound, second compound 3.16 µM)

CNC(=O)c1ccc(N2C(=S)N(c3ccc(C#N)c(C(F)(F)F)c3)C(=O)C2(C)C)cc1F + COc1c(OCCCN2CCOCC2)ccc2c3n(c(=NC(=O)c4cnc(N)nc4)nc12)CCN3
< 0.0316 µM: IC50 [4] | IC50 [5] | IC50 [6]
> 10 µM: IC50 [1] | IC50 [2] | IC50 [3]
active: viability, T/C [37] 1.3% | viability, T/C [38] 1.27% | viability, T/C [39] 1.65% | viability, T/C [40] 1.63% | viability, T/C [41] 1.96% | viability, T/C [42] 0.99%
inactive: viability, T/C [7] 93.6% | viability, T/C [8] 102% | viability, T/C [9] 101% | viability, T/C [10] 107% | viability, T/C [11] 124% | viability, T/C [12] 93.2% | viability, T/C [13] 97.3% | viability, T/C [14] 92.8% | viability, T/C [15] 92.7% | viability, T/C [16] 97.7% | viability, T/C [17] 102% | viability, T/C [18] 108% | viability, T/C [19] 78.1% | viability, T/C [20] 80% | viability, T/C [21] 81.8% | viability, T/C [22] 83.7% | viability, T/C [23] 80.4% | viability, T/C [24] 77% | viability, T/C [25] 47.8% | viability, T/C [26] 50.8% | viability, T/C [27] 57.1% | viability, T/C [28] 49.2% | viability, T/C [29] 58.4% | viability, T/C [30] 49.9% | viability, T/C [31] 16.4% | viability, T/C [32] 18.1% | viability, T/C [33] 13.4% | viability, T/C [34] 10.8% | viability, T/C [35] 14.5% | viability, T/C [36] 12.6%

CC(C)n1nc(-c2ccc3oc(N)nc3c2)c2c(N)ncnc21 + CC(Nc1ccc2c(c1)OCCn1cc(N3C(=O)OCC3C(F)F)nc1-2)C(N)=O
0.00501 µM: IC50 [5]
0.00186 µM: IC50 [6]
active: viability, T/C [20] 9.5% | viability, T/C [26] 6.95% | viability, T/C [32] 6.64% | viability, T/C [38] 5.83%
0.00762 µM: IC50 [3]
0.0106 µM: IC50 [4]
0.0115 µM: IC50 [2]
inactive: viability, T/C (second compound 0.00316 µM, first compound 0.000316 µM) 99.9% | viability, T/C (second compound 0.00316 µM, first compound 0.001 µM) 77% | viability, T/C (second compound 0.00316 µM, first compound 0.00316 µM) 80.6% | viability, T/C (second compound 0.00316 µM, first compound 0.01 µM) 53.9% | viability, T/C [7] 35.2% | viability, T/C [8] 12.7% | viability, T/C (second compound 0.01 µM, first compound 0.000316 µM) 104% | viability, T/C (second compound 0.01 µM, first compound 0.001 µM) 76% | viability, T/C (second compound 0.01 µM, first compound 0.00316 µM) 74.5% | viability, T/C (second compound 0.01 µM, first compound 0.01 µM) 51.3% | viability, T/C [13] 37.8% | viability, T/C [14] 13.1% | viability, T/C (second compound 0.0316 µM, first compound 0.000316 µM) 90.2% | viability, T/C (second compound 0.0316 µM, first compound 0.001 µM) 78.8% | viability, T/C (second compound 0.0316 µM, first compound 0.00316 µM) 59.2% | viability, T/C (second compound 0.0316 µM, first compound 0.01 µM) 50.5% | viability, T/C [19] 25.9% | viability, T/C (second compound 0.1 µM, first compound 0.000316 µM) 74.1% | viability, T/C (second compound 0.1 µM, first compound 0.001 µM) 81.6% | viability, T/C (second compound 0.1 µM, first compound 0.00316 µM) 71.3% | viability, T/C (second compound 0.1 µM, first compound 0.01 µM) 49.4% | viability, T/C [25] 25.4% | viability, T/C (second compound 0.316 µM, first compound 0.000316 µM) 60.3% | viability, T/C (second compound 0.316 µM, first compound 0.001 µM) 75.7% | viability, T/C (second compound 0.316 µM, first compound 0.00316 µM) 54% | viability, T/C (second compound 0.316 µM, first compound 0.01 µM) 37.7% | viability, T/C [31] 22.2% | viability, T/C (second compound 1 µM, first compound 0.000316 µM) 57.5% | viability, T/C (second compound 1 µM, first compound 0.001 µM) 54.8% | viability, T/C (second compound 1 µM, first compound 0.00316 µM) 45.9% | viability, T/C (second compound 1 µM, first compound 0.01 µM) 34.8% | viability, T/C [37] 19.4%
0.0139 µM: IC50 [1]

COc1c(OCCCN2CCOCC2)ccc2c3n(c(=NC(=O)c4cnc(N)nc4)nc12)CCN3
11.2% [middle of 8 runs]: viability, T/C (compound 0.316 µM)
active: viability, T/C (compound 1 µM) 1.63% [middle of 8 runs]
inactive: viability, T/C (compound 0.00316 µM) 106% [middle of 8 runs] | viability, T/C (compound 0.01 µM) 97.6% [middle of 8 runs] | viability, T/C (compound 0.0316 µM) 82.5% [middle of 8 runs] | viability, T/C (compound 0.1 µM) 50.2% [middle of 8 runs]
91.2 nM [middle of 8 runs]: IC50 (compound alone, run of 06/13/2023)
